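Five concentrations, 48 hours, 96-well plates. TGI: total growth inhibition.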

Among the test systems are SK-MEL-5 melanoma; HL-60(TB) leukemia; SNB-19 CNS; LOX IMVI melanoma; IGROV1 ovarian; U251 CNS; TK-10 renal; RPMI-8226 leukemia; CCRF-CEM leukemia; UACC-257 melanoma; OVCAR-3 ovarian; MDA-MB-435; COLO 205 colon; SN12C renal; MOLT-4 leukemia; M14 melanoma; OVCAR-8 ovarian; MCF7 breast; HCT-15 colon.
Common to all, as to assay: inhibition of tumour cell growth, NCI panel, 48 h

With `COC(=O)c1nsc(OC)c1Cl`, the TGI in the test with SK-MEL-5 melanoma, in the test with HL-60(TB) leukemia, in the test on SNB-19 CNS, in the test with LOX IMVI melanoma, with IGROV1 ovarian and in the test with U251 CNS was more than 100 µM throughout. The TGI with TK-10 renal, in the test on RPMI-8226 leukemia, in the test on CCRF-CEM leukemia, with UACC-257 melanoma, in the test with OVCAR-3 ovarian and in the test on MDA-MB-435 was more than 100 µM throughout. For the same compound, the TGI in the test on COLO 205 colon, in the test with SN12C renal, with MOLT-4 leukemia, in the test on M14 melanoma, with OVCAR-8 ovarian and in the test with MCF7 breast was more than 100 µM each time. In addition, in the test with HCT-15 colon, the TGI is more than 100 µM.
Regarding `COc1ccc(/C=C2\c3cc(OC)c(OC)cc3CCN2C(=O)c2ccccc2)cc1OC`, the TGI in the test on SK-MEL-5 melanoma was 45 µM; with HL-60(TB) leukemia, 65 µM; in the test on SNB-19 CNS, more than 100 µM; with LOX IMVI melanoma, more than 100 µM; in the test on IGROV1 ovarian, more than 100 µM; with U251 CNS, more than 100 µM. The TGI in the test with TK-10 renal is more than 100 µM; with RPMI-8226 leukemia it was more than 100 µM; in the test with CCRF-CEM leukemia, 98.4 µM; in the test on UACC-257 melanoma it was more than 100 µM; with OVCAR-3 ovarian, more than 100 µM; in the test with MDA-MB-435, 49 µM. Besides, the TGI in the test on COLO 205 colon is more than 100 µM; with SN12C renal, more than 100 µM; in the test with MOLT-4 leukemia it was 80.6 µM; in the test on M14 melanoma it was more than 100 µM; in the test on OVCAR-8 ovarian it was more than 100 µM; in the test with MCF7 breast it was more than 100 µM. In addition, the TGI with HCT-15 colon is more than 100 µM.
On to `[N-]=[N+]=CC(=O)OC1Cc2ccccc2C1`, for which the TGI in the test with SK-MEL-5 melanoma, in the test on HL-60(TB) leukemia, in the test on SNB-19 CNS, in the test on LOX IMVI melanoma, in the test on IGROV1 ovarian and in the test on U251 CNS was more than 100 µM in each case. Further, the TGI in the test on TK-10 renal is more than 100 µM; in the test with RPMI-8226 leukemia it was more than 100 µM; in the test on CCRF-CEM leukemia, more than 31.6 µM; in the test with UACC-257 melanoma, more than 100 µM; with OVCAR-3 ovarian it was more than 100 µM; with MDA-MB-435, more than 100 µM. For the same compound, the TGI in the test with COLO 205 colon, with SN12C renal, in the test on MOLT-4 leukemia, with M14 melanoma, in the test on OVCAR-8 ovarian and in the test on MCF7 breast was more than 100 µM throughout. In the test on HCT-15 colon, this compound returned a TGI of more than 100 µM.
With `Cc1cc(C(F)(F)F)cc(-n2nc(NS(=O)(=O)c3cc(C)c(Cl)cc3S)nc2N)n1`, the TGI in the test with SK-MEL-5 melanoma is more than 100 µM; in the test on HL-60(TB) leukemia it was 77.8 µM; with SNB-19 CNS, more than 100 µM; in the test on LOX IMVI melanoma, more than 100 µM; in the test with IGROV1 ovarian it was more than 100 µM; in the test with U251 CNS, more than 100 µM. Further, the TGI is more than 100 µM in the test on TK-10 renal; more than 100 µM with RPMI-8226 leukemia; 54.1 µM in the test on CCRF-CEM leukemia; more than 100 µM in the test on UACC-257 melanoma; more than 100 µM in the test on OVCAR-3 ovarian; more than 100 µM in the test on MDA-MB-435. The TGI in the test with COLO 205 colon was more than 100 µM; in the test with SN12C renal, more than 100 µM; in the test with MOLT-4 leukemia, 69.5 µM; in the test on M14 melanoma, more than 100 µM; in the test with OVCAR-8 ovarian it was more than 100 µM; in the test on MCF7 breast it was more than 100 µM. Besides, in the test with HCT-15 colon, the TGI is more than 100 µM.
On to `CC1(C)OC2C(O)C(CO)OC2(C(F)F)O1` (centres undefined), for which the TGI in the test on SK-MEL-5 melanoma, in the test on HL-60(TB) leukemia, with SNB-19 CNS, in the test on LOX IMVI melanoma, in the test with IGROV1 ovarian and in the test with U251 CNS was more than 100 µM each time. In addition, the TGI with TK-10 renal, in the test with RPMI-8226 leukemia, with CCRF-CEM leukemia, in the test on UACC-257 melanoma, in the test on OVCAR-3 ovarian and in the test with MDA-MB-435 was more than 100 µM in each case. In addition, the TGI with COLO 205 colon, with SN12C renal, in the test on MOLT-4 leukemia, with M14 melanoma, in the test with OVCAR-8 ovarian and in the test with MCF7 breast was more than 100 µM throughout. The compound further showed a TGI in the test on HCT-15 colon of more than 100 µM.
As to `CC(Oc1ccc(Cl)cc1Cl)C(=O)NN1C(=O)CSC1c1ccccc1` (centres undefined), the TGI in the test on SK-MEL-5 melanoma is more than 100 µM; with HL-60(TB) leukemia it was 77.9 µM; with SNB-19 CNS it was more than 100 µM; with LOX IMVI melanoma, more than 100 µM; in the test with IGROV1 ovarian it was more than 100 µM; with U251 CNS, more than 100 µM. In addition, the TGI in the test with TK-10 renal, with RPMI-8226 leukemia, with CCRF-CEM leukemia, in the test on UACC-257 melanoma, with OVCAR-3 ovarian and with MDA-MB-435 was more than 100 µM in each case. In addition, the TGI with COLO 205 colon, in the test with SN12C renal, in the test with MOLT-4 leukemia, in the test with M14 melanoma, with OVCAR-8 ovarian and in the test with MCF7 breast was more than 100 µM each time. In the test on HCT-15 colon, this compound came in with a TGI of more than 100 µM.
